Assay results from publication PMC4138103 (PLoS ONE, 2014).
Where two headings read alike, the source gives them in different places.

What was measured:
[1] = system: Sprague-Dawley rats; assay: Serum steroids and gonadotropins; format: in vivo, Rattus norvegicus; conditions: for CED, Serum FSH / CED, Serum LH / CED-L, Serum FSH / CED-L, Serum LH: adipose tissue concentration based; for Emax: Rattus norvegicus; for Estradiol / LH / Progesterone / FSH / Testosterone: group mean; for Serum FSH, CED / Serum FSH, CED-L / Serum LH, CED / Serum LH, CED-L: total dose based
Protocol: Serum testosterone, estradiol and progesterone concentrations were measured by time-resolved immunofluorometric assay, DELFIA (PerkinElmer Life and Analytical Sciences, Turku, Finland) after diethyl ether (Merck KGaA, Darmstadt, Germany) extraction. Ether-extracted serum samples were reconstituted to DELFIA Diluent II buffer (PerkinElmer Life and Analytical Sciences, Turku, Finland) and used for analysis. The sensitivity of the assay was 100 pg/ml for testosterone, 13.6 pg/ml for estradiol and 250 pg/ml for progesterone. The intra- and interassay coefficients of variation (CV) were below 6 and 12%, respectively. To enhance the sensitivity, commercial tracer and antiserum were additionally diluted 5∶8 with assay buffer (PerkinElmer Life and Analytical Sciences, Turku, Finland) in testosterone assay. For estradiol and progesterone, dilution rate was 1∶2. Serum follicle stimulating hormone (FSH) and luteinizing hormone (LH) levels were determined from unextracted samples by DELFIA as described previously, [31].
Data were also analyzed using the BMD method, which is based on dose-response modeling of the full data set using a nested family of exponential and Hill models. The analyses were done on data of males and females combined, using sex as a covariate. […] In that case, different Critical Effect Doses (CEDs) and CEDs at the lowest bound of the confidence interval (CED-L) were generated for each sex. If no difference between sexes is detected, a CED and CED-Ls for the combined data is generated. However, this was also done if the curve fits are close, and separate analyses for males and females were then performed manually. CEDs and CED-Ls were calculated at the predefined Critical Effect Size (CES) of 5% (EFSA standard) or 10%.

[2] = system: Sprague-Dawley rats; set-up: method as in Roos et al., 2011; conditions: group mean, ref Roos et al., 2011, cited from earlier work
[3] = females, total dose 10 mg/kg bw
[4] = females, total dose 30 mg/kg bw
[5] = females, total dose 100 mg/kg bw
[6] = females, total dose 300 mg/kg bw
[7] = females, total dose 1000 mg/kg bw
[8] = females, total dose 1700 mg/kg bw
[9] = males, total dose 1000 mg/kg bw
[10] = males, total dose 1700 mg/kg bw

Clc1cc(Cl)c(-c2cc(Cl)c(Cl)c(Cl)c2Cl)cc1Cl [PCB 180, 2,2′,3′,4,4′,5,5′-heptachlorobiphenyl]
CED, Serum FSH ([1]; M, CES 5%, model E2): 1600 µg/g lipid
CED, Serum LH ([1]; M, CES 5%, model E2): 1160 µg/g lipid
CED-L, Serum FSH ([1]; M, CES 5%, model E2): 1116 µg/g lipid
CED-L, Serum LH ([1]; M, CES 5%, model E2): 648 µg/g lipid
CED, Serum FSH ([1]; M, CES 10%, model E2): 3290 µg/g lipid
CED, Serum LH ([1]; M, CES 10%, model E2): 2390 µg/g lipid
CED-L, Serum FSH ([1]; M, CES 10%, model E2): 2292 µg/g lipid
CED-L, Serum LH ([1]; M, CES 10%, model E2): 1331 µg/g lipid
Emax ([1]; males, controls vs high dose, fitted model, read-out: Serum FSH, Maximum response): -20.6%
Emax ([1]; males, controls vs high dose, fitted model, read-out: Serum LH, Maximum response): -27.9%
Emax ([1]; M, model E2, controls vs high dose according to the fitted model, read-out: Maximum response, Serum FSH): -21.1%
Emax ([1]; M, model E2, controls vs high dose according to the fitted model, read-out: Maximum response, Serum LH): -27.8%
Estradiol ([1]; females, total dose 3 mg/kg bw): 20.2 pg/mL
LH ([1]; females, total dose 3 mg/kg bw): 1.51 ng/mL
Progesterone ([1]; females, total dose 3 mg/kg bw): 37.1 ng/mL
Estradiol [1, 3]: 23.6 pg/mL
LH [1, 3]: 2.57 ng/mL
Progesterone [1, 3]: 18.0 ng/mL
Estradiol [1, 4]: 18.8 pg/mL
LH [1, 4]: 1.81 ng/mL
Progesterone [1, 4]: 22.3 ng/mL
Estradiol [1, 5]: 21.4 pg/mL
LH [1, 5]: 1.96 ng/mL
Progesterone [1, 5]: 33.0 ng/mL
Estradiol [1, 6]: 15.4 pg/mL
LH [1, 6]: 2.02 ng/mL
Progesterone [1, 6]: 27.5 ng/mL
Estradiol [1, 7]: 17.4 pg/mL
LH [1, 7]: 1.39 ng/mL
Progesterone [1, 7]: 27.7 ng/mL
Estradiol [1, 8]: 17.6 pg/mL
LH [1, 8]: 1.77 ng/mL
Progesterone [1, 8]: 22.7 ng/mL
FSH, Dose response ([1]; males): D, T
LH, Dose response ([1]; males): D, T
Serum FSH, CED ([1]; males, CES 5%): 377 mg/kg bw
Serum FSH, CED-L ([1]; males, CES 5%): 263 mg/kg bw
Serum LH, CED ([1]; males, CES 5%): 266 mg/kg bw
Serum LH, CED-L ([1]; males, CES 5%): 150 mg/kg bw
Serum FSH, CED ([1]; males, CES 10%): 775 mg/kg bw
Serum FSH, CED-L ([1]; males, CES 10%): 540 mg/kg bw
Serum LH, CED ([1]; males, CES 10%): 547 mg/kg bw
Serum LH, CED-L ([1]; males, CES 10%): 309 mg/kg bw
FSH ([1]; males, total dose 3 mg/kg bw): 8.23 ng/mL
LH ([1]; males, total dose 3 mg/kg bw): 1.23 ng/mL
Testosterone ([1]; males, total dose 3 mg/kg bw): 2.35 ng/mL
FSH ([1]; males, total dose 10 mg/kg bw): 8.54 ng/mL
LH ([1]; males, total dose 10 mg/kg bw): 0.91 ng/mL
Testosterone ([1]; males, total dose 10 mg/kg bw): 2.66 ng/mL
FSH ([1]; males, total dose 30 mg/kg bw): 7.44 ng/mL
LH ([1]; males, total dose 30 mg/kg bw): 0.99 ng/mL
Testosterone ([1]; males, total dose 30 mg/kg bw): 1.92 ng/mL
FSH ([1]; males, total dose 100 mg/kg bw): 7.88 ng/mL
LH ([1]; males, total dose 100 mg/kg bw): 0.84 ng/mL
Testosterone ([1]; males, total dose 100 mg/kg bw): 3.21 ng/mL
FSH ([1]; males, total dose 300 mg/kg bw): 7.66 ng/mL
LH ([1]; males, total dose 300 mg/kg bw): 1.03 ng/mL
Testosterone ([1]; males, total dose 300 mg/kg bw): 2.04 ng/mL
FSH [1, 9]: 7.49 ng/mL
LH [1, 9]: 0.77 ng/mL
Testosterone [1, 9]: 2.18 ng/mL
FSH [1, 10]: 6.49 ng/mL
LH [1, 10]: 0.75 ng/mL
Testosterone [1, 10]: 1.85 ng/mL
Body weight ([2]; females, total dose 3 mg/kg bw): 215 g
Body weight [2, 3]: 210 g
Body weight [2, 4]: 213 g
Body weight [2, 5]: 211 g
Body weight [2, 6]: 212 g
Body weight [2, 7]: 213 g
Body weight [2, 8]: 208 g
Body weight ([2]; males, total dose 3 mg/kg bw): 306 g
Body weight ([2]; males, total dose 10 mg/kg bw): 321 g
Body weight ([2]; males, total dose 30 mg/kg bw): 324 g
Body weight ([2]; males, total dose 100 mg/kg bw): 322 g
Body weight ([2]; males, total dose 300 mg/kg bw): 325 g
Body weight [2, 9]: 315 g
Body weight [2, 10]: 310 g
